What was measured:
[1] = test system: renal proximal tubular cells; test: Monolayer DNA content as marker of renal proximal tubular cell proliferation after DCVC injury; format: cell-based, rabbit
Protocol: (§1) Rabbit renal proximal tubules were isolated by iron oxide perfusion method and grown in 35 mm culture dishes in improved conditions as described previously (Nowak and Schnellmann, 1996). The purity of the renal proximal tubular S1 and S2 segments isolated by this method is approximately 96%. The culture medium was a 50:50 mixture of Dulbecco's modified Eagle's essential medium (DMEM) and Ham's F-12 nutrient mix without phenol red, pyruvate, and glucose, supplemented with 15 mM NaHCO3, 15 mM N-2hydroxyethylpiperazine-N′-2-ethanesulfonic acid, and 6 mM lactate (pH7.4, 295 mosmol/kg). Human transferrin (5 μg/ml), selenium (5 ng/ml), hydrocortisone (50 nM), bovine insulin (10 nM), and L-ascorbic acid-2-phosphate (0.05 mM or 0.5 mM) were added to the medium immediately before daily media change (2 ml/ dish).
(§2) Renal proximal tubular cells monolayers reached confluence within 5 days and were treated with dichlorovinyl-L-cysteine (0.2 mM, 100 min) on day 6 of culture. Following dichlorovinyl-L-cysteine exposure, the remaining monolayer was washed with fresh medium and cultured for 4 days. Samples of renal proximal tubular cells were taken at various time points after dichlorovinyl-L-cysteine exposure for measurements of cellular functions. Prior to measurement of any functions, renal proximal tubular cells were washed with ice cold phosphate buffered saline (pH 7.4) or 37° C. culture media (for measurement of oxygen consumption, QO2) to remove non-viable cells.
Monolayer DNA content was used as a marker of renal proximal tubular cells proliferation. Monolayers were solubilized in 0.05 M Tris-HCl (pH 7.4) containing 0.15 M NaCl and 0.05% Triton X-100 and DNA determined in cell lysates by the method of Labarca and Paigen (1980) as described previously (Nowak and Schnellmann, 1996). Protein was measured by the method of Lowry et al. (1951).

[2] = test system: renal proximal tubular cells; test: Basal oxygen consumption (QO2) as marker of mitochondrial function; format: cell-based, rabbit
Protocol: as §1, §2
(§3) Washed renal proximal tubular cells monolayers were gently detached from the dishes with a rubber policeman, suspended in 37° C. culture medium and transferred to the oxygen consumption (QO2) measurement chamber. QO2 was measured polarographically using Clark type electrode as described previously (Nowak and Schnellmann, 1996; Nowak et al., 1998; Nowak et al., 1999). Ouabain-insensitive QO2 was measured in the presence of 0.1 mM ouabain and was calculated as a difference between basal and ouabain-insensitive QO2.

[3] = test system: renal proximal tubular cells; test: Ouabain-insensitive oxygen consumption (QO2); format: cell-based, rabbit; conditions: for decrease of ouabain-insensitive QO2: 24 hr after DCVC
Protocol: as §1, §2, §3

[4] = test system: renal proximal tubular cells; test: Ouabain-sensitive QO2 as marker of active Na+ transport; format: cell-based, rabbit
Protocol: as §1, with “dish). […]” for “dish).”
as §3

[5] = test system: α1 subunit of Na^+-K^+-ATPase; test: Immunocytochemical localization of Na+-K+-ATPase (confocal laser scanning microscopy); format: cell-based, rabbit; conditions: for effect on Na+-K+-ATPase protein of the plasma membrane: DCVC 0.2 mM, independent of AscP concentration
Protocol: as §1, §2
At various time points following dichlorovinyl-L-cysteine exposure, control and DCVC-treated renal proximal tubular cells monolayers were washed 3 times with ice-cold PBS and fixed in 3.7% formaldehyde. Following permeabilization with 100% methanol for 10 min at −20° C., renal proximal tubular cells monolayers were washed with PBS containing 0.1% BSA and 0.3% Triton X-100 (PBS/0.1% BSA/0.3% Triton X-100) for 15 min at room temperature. Blocking of non-specific binding was performed for 30 min in PBS containing 8% BSA. […]

[6] = test system: renal proximal tubular cells; conditions: Nowak et al., 1999, cited from earlier work
[7] = DCVC-injured RPTC, 0.5 mM AscP, day 4

Question: With `O=C1O[C@H]([C@@H](O)CO)C(O)=C1OP(=O)([O-])[O-].[Mg+2]` [L-ascorbic acid phosphate, L-Ascorbic acid-2-phosphate magnesium salt] as the compound, how does the “proliferation and recovery of physiological functions and basolateral Na+-K+-ATPase expression” value ([1]; DCVC-injured RPTC, 0.5 mM AscP, by day 4 (summary)) read?
Answer: proliferated, recovered all examined physiological functions and the basolateral membrane expression of Na^+-K^+-ATPase by day 4

Question: What about the “increase of monolayer DNA content” value ([1]; DCVC-injured RPTC, 0.5 mM AscP, day 2) of the same compound?
Answer: 1.6 fold

Question: What about the “increase of monolayer DNA content” value [1, 7] of the same compound?
Answer: 2.3 fold

Question: What about the “monolayer DNA content relative to controls” value [1, 7] of the same compound?
Answer: 81 % of controls

Question: What about the “monolayer DNA content in control RPTC, 0.05 vs 0.5 mM” value ([1]; control RPTC without DCVC) of the same compound?
Answer: equivalent

Question: And the “basal QO2 in control RPTC, 0.05 vs 0.5 mM” value ([2]; control RPTC without DCVC)?
Answer: equivalent

Question: And the “remaining decrease of ouabain-insensitive QO2” value ([3]; DCVC-injured RPTC, through day 4, 0.05 mM AscP)?
Answer: 45%

Question: What about the “ouabain-insensitive QO2” value ([3]; control RPTC without DCVC, 0.05 mM AscP) of the same compound?
Answer: 9.7±1.6 nmol O2/min/mg protein

Question: What about the “ouabain-insensitive QO2” value ([3]; control RPTC without DCVC, 0.5 mM AscP) of the same compound?
Answer: 12.9±1.5 nmol O2/min/mg protein

Question: And the “time of return of active Na+ transport to control levels” value ([4]; DCVC-injured RPTC, pharmacological concentrations of AscP (discussion))?
Answer: occurred on day 4

Question: And the “ouabain-sensitive QO2 in control RPTC, 0.05 vs 0.5 mM” value ([4]; control RPTC without DCVC)?
Answer: equivalent

Question: What about the “basolateral Na+-K+-ATPase protein levels and distribution in control RPTC, physiological vs pharmacological concentration” value ([5]; control RPTC without DCVC) of the same compound?
Answer: no difference

Question: For `N[C@@H](CSC(Cl)=CCl)C(=O)O` [dichlorovinyl-L-cysteine, S-(1,2dichlorovinyl)-L-cysteine], which “renal proximal tubular cells death and loss from the monolayer” value ([1]; 24 hr after DCVC 0.2 mM, 100 min, independent of AscP 0.05 or 0.5 mM) is on record?
Answer: 60%

Question: And the “loss of monolayer DNA” value ([1]; 24 hr after DCVC 0.2 mM, 100 min, regardless of AscP 0.05 or 0.5 mM)?
Answer: 61%

Question: And the “decrease of basal QO2” value ([2]; 24 hr after DCVC, RPTC grown in 0.05 mM AscP)?
Answer: 59%

Question: What about the “decrease in mitochondrial function” value ([2]; DCVC 0.2 mM, 100 min, independent of AscP concentration) of the same compound?
Answer: 54%

Question: And the “decrease of basal QO2” value ([2]; after DCVC, RPTC grown in 0.5 mM AscP)?
Answer: 62%

Question: What about the “decrease of ouabain-insensitive QO2” value ([3]; 0.05 mM AscP) of the same compound?
Answer: 32%

Question: What about the “decrease of ouabain-insensitive QO2” value ([3]; 0.5 mM AscP) of the same compound?
Answer: 50%

Question: And the “ouabain-insensitive QO2” value ([3]; DCVC-treated RPTC, 24 hr, 0.05 mM AscP)?
Answer: 6.6±2.6 nmol O2/min/mg protein

Question: What about the “ouabain-insensitive QO2” value ([3]; DCVC-treated RPTC, 24 hr, 0.5 mM AscP) of the same compound?
Answer: 6.5±1.0 nmol O2/min/mg protein

Question: And the “effect on Na+-K+-ATPase protein of the plasma membrane” value [5]?
Answer: loss of Na^+-K^+-ATPase protein from the basolateral membrane

Question: And the “effect on Na+-K+-ATPase protein of the plasma membrane” value ([5]; listed as DCVC)?
Answer: loss of the Na^+-K^+-ATPase protein from the basolateral domain

Question: What about the “cell death and loss from the monolayer” value ([6]; earlier study) of the same compound?
Answer: 30%

Question: With “EGF: epidermal growth factor, 10 ng/ml daily treatments” as the compound, how does the “effect on inhibition of RPTC regeneration after DCVC-induced injury” value ([6]; daily treatments, 10 ng/ml) read?
Answer: can be overcome

Source: patent US20020019372A1 (priority 2000, published 2002)
